# Reference: patent US20240139170A1, “TOPICAL FORMULATIONS OF A JAK 1/3 INHIBITOR AND METHODS OF USE THEREOF FOR TREATMENT OF ATOPIC DERMATITIS AND OTHER SKIN CONDITIONS” (ACLARIS THERAPEUTICS, INC., priority 2021, published 2024)
# Values joined by “and” are separate entries in the source; they are usually repeats but may differ in a detail not shown here. Equal values may be shown once. “Also recorded” adds a separate entry of the source.
# Columns and labels:
# [1] = tested on: moderate or severe atopic dermatitis; experiment: Phase 2a study, efficacy (EASI/mEASI, PP-NRS); format: in vivo, human
# Source text: (§1) PK blood draws assessed systemic exposure.
# Fifty (50) subjects, aged 18-65 years, male and female were selected to use either a topical formulation comprising 2% w/w Compound I or a placebo. Pertinent inclusion criteria for the study included: (i) a diagnosis of atopic dermatitis (AD) fulfilled the specified diagnostic criteria of Hanifin and Rajka (Hanifin J M, Rajka G. Diagnostic features of atopic dermatitis. Acta Derm Venereol. Suppl 1980; 92: 44-7, which is hereby incorporated by reference in its entirety); (ii) a 6-month history of AD; (iii) no significant AD flares for 4 weeks prior; (iv) at least 1 lesion measuring […], but not located on the hands, feet, or genitalia; (v) a stable diagnosis of moderate or severe (Investigator's Global Assessment (IGA) score of 3 or 4); (vi) Eczema Area and Severity Index (EASI) score of ≤48; and (vii) have AD affecting 3% to 20% of Body Surface Area (BSA) (not including head, […], soles of feet, groin, and genitalia).
# The 50 subjects were randomized into 2% Compound I treatment (n=23) and vehicle treatment (n=25) groups. Two of the subjects were randomized but not treated. Of the allocated subjects, 91% (n=21) of the Compound I treatment group and 72% (n=18) completed the study. The demographics and baseline characteristics of the study subjects is provided below in Table 3.
# (§2) The topical formulation was applied topically twice per day, approximately 8 to 12 hours apart. Up to 8 mL, 1 mL at a time, is applied to an identified AD target area of the subject and rubbed into said area by the subject to achieve a thin film on the skin. Less than 8 mL may be used if less is required to fully cover the identified AD target area. Subjects document symptoms of AD, such as itching, on a daily basis. Subjects were asked to abstain from washing the treated area within 6 hours after application, minimize sun exposure, refrain from using moisturizers, emollients, and sunscreen on the treatment areas, and refrain from activities that would cause profuse sweating (e.g., exercise) for a period of 6 hours after each application. The study ran 4 weeks. On days 1, 8, and 15, a pharmacokinetic sample (e.g., blood) was collected from each subject about 2 hours after application of the topical formulation. On day 28, the following pharmacokinetic samples were collected: • Subgroup 1: One sample before application and one sample at 0.5 to 2.5 hours post application • Subgroup 2: One sample at 2.5 to 5 hours post application and one sample at least 2 hours later • Subgroup 3: One sample at 5 to 8 hours post application and one sample at least 2 hours later (prior to the subsequent application)
# On each of these days 1, 8, 15, and 28, symptoms of AD in each subject were evaluated by EASI score, IGA, PP-NRS, and BSA. Primary efficacy of treatment was measured by a percent change from baseline EASI (EASI at day 1) to EASI at day 28.
# Further measurements of efficacy included percent change in EASI between each of days 1, 8, 15, and 28 as well as change from baseline and/or prior evaluation of IGA, AD BSA, and PP-NRS on days 8, 15, and 28; percent of subjects achieving IGA scores of 0 to 1 combined with an improvement of 2 or more points from baseline by day 28; proportion of subjects who achieve 50%, 75%, and 90% improvement in EASI score (compared to baseline).
# The primary efficacy endpoint of this trial was the percent change from baseline in the Eczema Area and Severity Index (EASI) score at week 4.
# [2] = Phase 2a study, plasma pharmacokinetics; format: in vivo, human
# Description: as §1, §2
# [3] = in vivo
# [4] = Phase 2a study, plasma pharmacokinetics; format: in vivo, human; remark: listed apart in the source
# [5] = Phase 2a study, safety (adverse events); conditions: for Candida infection: patients with at least one event: BID, N = 23
compound,measurement,setting,value
"CCOC(=O)c1cnc2[nH]ccc2c1N[C@@H]1CCCN(C(=O)CC#N)C1 [Compound I, ethyl (R)-4-((1-(2-cyanoacetyl)piperidin-3-yl)amino)-1H-pyrrolo[2,3-b]pyridine-5-carboxylate]",Mean decrease in PP-NRS score relative to baseline,"[1]; after one week, 2% BID",1.72
same,Patients achieving 50% improvement in EASI score (EASI 50),"[1]; end of week 1 (day 8), 2% BID",34.8%
same,Patients achieving 75% improvement in EASI score (EASI 75),"[1]; end of week 1 (day 8), 2% BID",13.0%
same,Patients achieving 90% improvement in EASI score (EASI 90),"[1]; end of week 1 (day 8), 2% BID",4.3%
same,Patients achieving 50% improvement in EASI score (EASI 50),"[1]; end of week 2 (day 15), 2% BID",69.6%
same,Patients achieving 75% improvement in EASI score (EASI 75),"[1]; end of week 2 (day 15), 2% BID",21.7%
same,Patients achieving 90% improvement in EASI score (EASI 90),"[1]; end of week 2 (day 15), 2% BID",8.7%
same,Patients achieving 50% improvement in EASI score (EASI 50),"[1]; end of week 4 (day 28), 2% BID",91.3%
same,Patients achieving 75% improvement in EASI score (EASI 75),"[1]; end of week 4 (day 28), 2% BID",65.2%
same,Patients achieving 90% improvement in EASI score (EASI 90),"[1]; end of week 4 (day 28), 2% BID",30.4%
same,Reduction in mean mEASI score from baseline,"[1]; week 4 (day 28), 2.0% topical solution BID, FAS N=23, primary endpoint",74.4% and 74.5%
same,Mean drug levels in plasma relative to IC50,"[2]; 2% BID topical, 4 weeks",≤ 5 % of the IC50
same,Plasma samples with Compound I levels below the lower limit of quantitation of 0.1 ng/mL,"[2]; 4-week topical treatment, 2% BID",Greater than 86%
same,Plasma samples with concentration of the active compound below 1 ng/ml,"[2]; 4-week topical treatment, treatment arm",greater than 86%
same,Average plasma concentration,"[2]; Day 1, 2 hr post dose",1.604 ng/mL
same,Average plasma concentration,"[2]; Day 8, 2 hr post dose",0.519 ng/mL
same,Average plasma concentration,"[2]; Day 28, pre dose",0.328 ng/mL
same,All plasma concentrations relative to IC50,"[2]; IC50=36 ng/mL, 2% BID topical",less than half of the IC50
same,Plasma Compound I CONC,"[2]; subject 004-0002, Day 1, hour 0 Predose, LLOQ 0.100",<LLOQ
same,Plasma Compound I CONC,"[2]; subject 004-0002, Day 1, hour 2, LLOQ 0.100",<LLOQ
same,Plasma Compound I CONC,"[2]; subject 004-0002, Day 8, hour 2",0.229 ng/mL
same,Plasma Compound I CONC,"[2]; subject 004-0002, Day 15, hour 2, LLOQ 0.100",<LLOQ
same,Plasma Compound I CONC,"[2]; subject 004-0002, Day 28/ET, 0.5-2.5 hr",0.168 ng/mL
same,Plasma Compound I CONC,"[2]; subject 004-0002, Day 28/ET, hour 0 Predose",0.165 ng/mL
same,Plasma Compound I CONC,"[2]; subject 004-0004, Day 1, hour 0 Predose, LLOQ 0.100",<LLOQ
same,Plasma Compound I CONC,"[2]; subject 004-0004, Day 1, hour 2, LLOQ 0.100",<LLOQ
same,Plasma Compound I CONC,"[2]; subject 004-0004, Day 8, hour 0 Predose, LLOQ 0.100",<LLOQ
same,Plasma Compound I CONC,"[2]; subject 004-0004, Day 8, hour 2, LLOQ 0.100",<LLOQ
same,Plasma Compound I CONC,"[2]; subject 004-0004, Day 15, hour 2, LLOQ 0.100",<LLOQ
same,Plasma Compound I CONC,"[2]; subject 004-0004, Day 28/ET, 5-8 hr, LLOQ 0.100",<LLOQ
same,Plasma Compound I CONC,"[2]; subject 004-0004, Day 28/ET, 7-10 hr",0.104 ng/mL
same,Plasma Compound I CONC,"[2]; subject 004-0008, Day 1, hour 2",1.62 ng/mL
same,Plasma Compound I CONC,"[2]; subject 004-0008, Day 8, hour 0 Predose",0.616 ng/mL
same,Plasma Compound I CONC,"[2]; subject 004-0008, Day 8, hour 2",0.639 ng/mL
same,Plasma Compound I CONC,"[2]; subject 004-0008, Day 15, hour 0 Predose",0.740 ng/mL
same,Plasma Compound I CONC,"[2]; subject 004-0008, Day 15, hour 2",0.512 ng/mL
same,Plasma Compound I CONC,"[2]; subject 004-0008, Day 28/ET, 2.5-5 hr",0.543 ng/mL
same,Plasma Compound I CONC,"[2]; subject 004-0008, Day 28/ET, 4.5-7 hr",0.441 ng/mL
same,Plasma Compound I CONC,"[2]; subject 012-0001, Day 1, hour 0 Predose, LLOQ 0.100",<LLOQ
same,Plasma Compound I CONC,"[2]; subject 012-0001, Day 1, hour 2",14.9 ng/mL
same,Plasma Compound I CONC,"[2]; subject 012-0001, Day 8, hour 2",1.50 ng/mL
same,Plasma Compound I CONC,"[2]; subject 012-0001, Day 15, hour 0 Predose",0.521 ng/mL
same,Plasma Compound I CONC,"[2]; subject 012-0001, Day 15, hour 2",1.05 ng/mL
same,Plasma Compound I CONC,"[2]; subject 012-0001, Day 28/ET, 0.5-2.5 hr",3.71 ng/mL
same,Plasma Compound I CONC,"[2]; subject 012-0001, Day 28/ET, hour 0 Predose",1.23 ng/mL
same,Plasma Compound I CONC,"[2]; subject 012-0017, Day 1, hour 0 Predose, LLOQ 0.100",<LLOQ
same,Plasma Compound I CONC,"[2]; subject 012-0017, Day 1, hour 2",2.45 ng/mL
same,Plasma Compound I CONC,"[2]; subject 012-0017, Day 8, hour 0 Predose",0.845 ng/mL
same,Plasma Compound I CONC,"[2]; subject 012-0017, Day 8, hour 2",0.459 ng/mL
same,Plasma Compound I CONC,"[2]; subject 012-0017, Day 15, hour 0 Predose",11.1 ng/mL
same,Plasma Compound I CONC,"[2]; subject 012-0017, Day 15, hour 2",5.26 ng/mL
same,Plasma Compound I CONC,"[2]; subject 012-0017, Day 28/ET, 5-8 hr",0.536 ng/mL
same,Plasma Compound I CONC,"[2]; subject 012-0017, Day 28/ET, 7-10 hr",0.704 ng/mL
same,Plasma Compound I CONC,"[2]; subject 13-0001, Day 1, hour 0 Predose, LLOQ 0.100",<LLOQ
same,Plasma Compound I CONC,"[2]; subject 13-0001, Day 1, hour 2",12.9 ng/mL
same,Plasma Compound I CONC,"[2]; subject 13-0001, Day 8, hour 0 Predose",0.914 ng/mL
same,Plasma Compound I CONC,"[2]; subject 13-0001, Day 8, hour 2",1.79 ng/mL
same,Plasma Compound I CONC,"[2]; subject 13-0001, Day 15, hour 2",1.86 ng/mL
same,Plasma Compound I CONC,"[2]; subject 13-0001, Day 28/ET, 0.5-2.5 hr",3.99 ng/mL
same,Plasma Compound I CONC,"[2]; subject 13-0001, Day 28/ET, hour 0 Predose",0.530 ng/mL
same,Highest plasma concentration in any subject,[2]; whole study,≤ 15 ng/mL
same,Samples with plasma concentrations > 1/10th the IC50,[2]; whole study,6 total samples
same,Subjects with plasma concentrations > 1/10th the IC50,[2]; whole study,3 subjects
same,Application site irritation: patients with at least one event,[3]; human,0
same,Oropharyngeal pain: patients with at least one event,[3]; human,0
same,Pharyngitis streptococcal: patients with at least one event,[3]; human,0
same,Rash: patients with at least one event,[3]; human,0
same,SARS-CoV-2 test positive: patients with at least one event,[3]; human,0
same,Sinus congestion: patients with at least one event,[3]; human,0
same,Skin fragility: patients with at least one event,[3]; human,0
same,Somnolence: patients with at least one event,[3]; human,0
same,COVID-19: patients with at least one event,"[3]; human, 4 weeks",0
same,"Related TEAE, last figure of the cell (number of events)","[3]; human, 4 weeks",1
same,"Severe TEAE, last figure of the cell (number of events)","[3]; human, 4 weeks",2
same,Subjects reporting AEs,"[3]; human, 4 weeks",9/23
same,Subjects with at least one SAE,"[3]; human, 4 weeks",0
same,Subjects with at least one TEAE leading to discontinuation of study drug,"[3]; human, 4 weeks",0
same,"Subjects with at least one TEAE, number (percent)","[3]; human, 4 weeks",9 (39.1)
same,"Subjects with at least one related TEAE, number (percent)","[3]; human, 4 weeks",1 (4.3)
same,"Subjects with at least one severe TEAE, number (percent)","[3]; human, 4 weeks",2 (8.7)
same,"TEAE, last figure of the cell (number of events, agrees with Table 7)","[3]; human, 4 weeks",16
same,Severe adverse events,[3],Two unrelated severe events (AF and elevated CPK)
same,Thrombosis,[3],no reports of thrombosis
same,Tolerability,[3],generally well tolerated
same,Plasma Compound I CONC,"[4]; subject 004-0002, Day 8, hour 0 Predose",0.188 ng/mL
same,Plasma Compound I CONC,"[4]; subject 004-0002, Day 15, hour 0 Predose",0.100 ng/mL
same,Plasma Compound I CONC,"[4]; subject 004-0004, Day 15, hour 0 Predose, LLOQ 0.100",<LLOQ
same,Plasma Compound I CONC,"[4]; subject 004-0008, Day 1, hour 0 Predose, LLOQ 0.100",<LLOQ
same,Plasma Compound I CONC,"[4]; subject 012-0001, Day 8, hour 0 Predose",1.43 ng/mL
same,Plasma Compound I CONC,"[4]; subject 13-0001, Day 15, hour 0 Predose",0.598 ng/mL
same,Deaths / serious adverse events,[5]; 4 weeks BID,No deaths or SAEs were reported; also recorded: No serious adverse events were reported
same,Candida infection: patients with at least one event,[5]; Mild,0
same,Candida infection: patients with at least one event,[5]; Moderate,1 (4.3)
same,Candida infection: patients with at least one event,[5]; Severe,0
